Source: patent US11033537B2, “LPT-723 and immune checkpoint inhibitor combinations and methods of treatment” (BIOMED VALLEY DISCOVERIES, INC., priority 2015, dated 2021)

How the values were obtained:
Type in all cases: cell-based, murine
MBT-2 cells = assay: In vitro cell viability assay, MBT-2
Pan02 cells = assay: In vitro cell viability assay (CellTiter-Glo), Pan02
Description: No significant changes in body weights were noted.

A20 cells = assay: In vitro cell viability assay, A20

N.N.[Cl][Pt][Cl] [Cisplatin, reference compound]
IC50 (MBT-2 cells): 6.87 µM
IC50 (Pan02 cells): 1.09 µM
IC50 (A20 cells): 1.07 µM
